Measurements reported in patent US20250019400A1, “POLYPEPTIDE AND COSMETIC COMPOSITION OR PHARMACEUTICAL COMPOSITION AND USE THEREOF” (SHENZHEN WINKEY TECHNOLOGY CO., LTD, priority 2022, published 2025).

Test system: smooth muscle contraction in ileum
Experiment: Muscle contraction inhibition experiment (acetylcholine-induced smooth muscle contraction in isolated ileum)
Parameters: species or system SD rats
Settings: after acetylcholine, rat ileum
Description: 10 week old female SD rats weighing 220 g-260 g.
HW-400S constant temperature smooth muscle trough, BL-420E biological function experimental system, tension transducer, and other instruments as conventional experimental instruments.
acetylcholine chloride (Shanghai Yuanye), chloral hydrate (Shanghai Macklin).
• Acetyl octapeptide-3(Ac-Glu-Glu-Met-Gln-Arg-Arg-Ala-Asp-NH2), at a test concentration of 25 ppm, 50 ppm, 100 ppm, and 200 ppm, respectively; • Acetyl hexapeptide-30(Ac-Glu-Asp-Tyr-Tyr-Arg-Leu-NH2), at a test concentration of 25 ppm, 50 ppm, 100 ppm, and 200 ppm, respectively; • the peptide (4), at a test concentration of 25 ppm, 50 ppm, 100 ppm, and 200 ppm, respectively; • the peptide (8), at a test concentration of 25 ppm, 50 ppm, 100 ppm, and 200 ppm, respectively; • the peptide (32), at a test concentration of 100 ppm, 200 ppm, 400 ppm, and 800 ppm, respectively.
The experimental rats were fasted except for water for 12 hours before the experiment. 10% chloral hydrate was injected intraperitoneally into the rats at a dosage of 0.1 mL/25 g, and after the rats were anesthetized, the abdominal cavity was cut open to expose the enlarged cecum. A segment of ileum was taken out from the ileocecal region and washed clean in a tyrode's solution pre-bubbled with oxygen for 10 min, and several 4 cm long segments of ileum were cut and incubated in a tyrode's solution at 4° C. for subsequent use; and both ends of the ileum were tied partially and knotted with cotton threads to form a loop.
The HW-400S constant temperature smooth muscle trough and the BL-420E biological function experimental system were turned on, the tension transducer was connected to channel 1, the incubation temperature was adjusted to 37° C., the instruments were preheated for 0.5 hours, and oxygen was bubbled for more than 10 min. One end of the ileum segment is fixed to the intake bracket port with a cotton thread, and the other end thereof is connected to the tension transducer. The position and height of the transducer were appropriately adjusted to place the excised ileum segment in the center of the smooth muscle trough and then record of ileum activity was started.
After the muscle contraction was stabilized, acetylcholine with a final concentration of 0.1-1 μg/mL was added until a high and stable waveform appears in the muscle activity, and the action lasted for 5 minutes as the initial control. After balancing for 5 minutes, the samples to be tested were added respectively. Each time the test drug was replaced, the ileum segment was replaced with a new one, and relevant data was recorded by the instruments. The inhibition rate of smooth muscle contraction in ileum was calculated according to the following formula:
Inhibition rate of smooth muscle contraction in ileum=(contraction force after acetylcholine administration−contraction force after test sample administration)/contraction force after acetylcholine administration×100%
The experimental data was represented by mean standard deviation (Mean±SD).

Row | Substance | Inhibition rate of smooth muscle contraction in ileum (25 ppm, Mean±SD) [%] | Inhibition rate of smooth muscle contraction in ileum (50 ppm, Mean±SD) [%] | Inhibition rate of smooth muscle contraction in ileum (100 ppm, Mean±SD) [%] | Inhibition rate of smooth muscle contraction in ileum (200 ppm, Mean±SD) [%] | Inhibition rate of smooth muscle contraction in ileum (800 ppm) [%]
1 | Ac-Ser-Met-Gly-Ala-Leu-Ala-NH2 (Ac-SMGALA-NH2) [Peptide (8)] | 31.99 | 34.35 | 56.42 | 67.96 | –
2 | Ac-Trp-Ala-Ala-Pro-Phe-Leu-Arg-Ala-NH2 (Ac-WAAPFLRA-NH2) [(32)] | – | – | – | – | 44.41
3 | Ac-Val-Lys-Val-Leu-Gln-Trp-NH2 (Ac-VKVLQW-NH2) [Peptide (4)] | 49.78 | 62.40 | 66.72 | 76.88 | –
4 | Ac-Glu-Glu-Met-Gln-Arg-Arg-Ala-Asp-NH2 (Ac-EEMQRRAD-NH2) [Acetyl octapeptide-3, polypeptide in the prior art used as comparison sample, reference compound] | 10.2 ± 1.23 | 32.34 | 47.49 | 58.67 | –
5 | Ac-Glu-Asp-Tyr-Tyr-Arg-Leu-NH2 (Ac-EDYYRL-NH2) [Acetyl hexapeptide-30, polypeptide in the prior art used as comparison sample, reference compound] | 0.00 ± 2.45 | 0.47 ± 2.09 | 2.73 ± 0.66 | 48.09 | –
